According to patent US20070128217A1 (priority 2003, published 2007):

Columns and labels:
[1] = system: rabbit serum obtained by immunizing a rabbit with the SARS-CoV strain Frankfurt 1; assay type: binding; design: Binding of a rabbit serum to linear peptides / Binding of a rabbit serum to looped peptides / Rabbit serum linear peptides / Rabbit serum looped peptides / Binding of a rabbit serum to linear peptides of protein N of SARS-CoV Urbani (Rabbit serum linear peptides) / Binding of a rabbit serum to looped/cyclic peptides of protein N of SARS-CoV Urbani (Rabbit serum looped peptides): unit not given here
[2] = system: recombinant human anti-SARS-CoV antibody 03-018; assay type: binding; design: Binding of antibody 03-018 to linear peptides of the N protein of SARS-CoV Urbani / Binding of antibody 03-018 to looped/cyclic peptides of the N protein of SARS-CoV Urbani: unit not given here
[3] = system: control sera (pooled serum of ten healthy LUMC hospital workers; commercial negative donor pooled serum from the Dutch bloodbank); assay type: binding, human; design: Binding of Control serum LUMC to linear peptides / Binding of Control serum Blood-bank to linear peptides / Binding of Control serum LUMC to looped peptides / Binding of Control Serum Blood-Bank to Looped peptides / Binding of Control serum LUMC to linear peptides of the protein M of SARS-CoV Urbani / Binding of Control serum Blood-bank to linear peptides of the protein M of SARS-CoV Urbani / Binding of Control serum LUMC to looped peptides of the protein M of SARS-CoV Urbani / Binding of Control Serum Blood-Bank to Looped peptides of the protein M of SARS-CoV Urbani: unit not given here
[4] = system: antibodies in sera from SARS patients (sera 1a, 1b, 2, 6, 37, 62, London, SARS-yellow, SARS-green); assay type: binding, human; design: Binding of serum 6 to linear peptides of protein X1 of SARS-CoV Urbani / Binding of serum 37 to linear peptides of protein X1 of SARS-CoV Urbani / Binding of serum 6 to looped/cyclic peptide (PEPSCAN-ELISA) / Binding of serum 37 to looped/cyclic peptide (PEPSCAN-ELISA) / Binding of serum 37 to looped/cyclic peptides of protein X1 of SARS-CoV Urbani / Binding of serum 6 to linear peptides of protein X2 / Binding of serum 37 to linear peptides of protein X2 / Binding of serum 37 to looped/cyclic peptides of protein X2 of SARS-CoV Urbani / Binding of serum 6 to linear peptides of protein M of SARS-CoV Urbani / Binding of serum 37 to linear peptides of protein M of SARS-CoV Urbani / Binding of serum 6 to looped/cyclic peptides of protein M of SARS-CoV Urbani / Binding of serum 37 to looped/cyclic peptides of protein M of SARS-CoV Urbani / Binding of serum 6 to linear peptides of protein X3 of SARS-CoV Urbani / Binding of serum 37 to linear peptides of protein X3 of SARS-CoV Urbani / Binding of serum 37 to looped/cyclic peptides of protein X3 of SARS-CoV Urbani / Binding of serum 6 to linear peptides of protein X4 of SARS-CoV Urbani / Binding of serum 37 to linear peptides of protein X4 of SARS-CoV Urbani / Binding of serum 37 to looped/cyclic peptides of protein X4 of SARS-CoV Urbani / Binding of serum 6 to linear peptides of protein X5 of SARS-CoV Urbani / Binding of serum 37 to linear peptides of protein X5 of SARS-CoV Urbani / Binding of serum 37 to looped/cyclic peptides of protein X5 of SARS-CoV Urbani / Binding of serum 6 to linear peptides of protein N of SARS-CoV Urbani / Binding of serum 37 to linear peptides of protein N of SARS-CoV Urbani / Binding of serum 6 to linear peptide (PEPSCAN-ELISA) / Binding of serum 1a to looped/cyclic peptides of protein N of SARS-CoV Urbani / Binding of serum 1b to looped/cyclic peptides of protein N of SARS-CoV Urbani / Binding of serum 2 to looped/cyclic peptides of protein N of SARS-CoV Urbani / Binding of serum 6 to looped/cyclic peptides of protein N of SARS-CoV Urbani / Binding of serum 37 to looped/cyclic peptides of protein N of SARS-CoV Urbani / Binding of serum 62 to looped/cyclic peptides of protein N of SARS-CoV Urbani / Binding of serum London to looped/cyclic peptides of protein N of SARS-CoV Urbani / Binding of serum SARS-green to looped/cyclic peptides of protein N of SARS-CoV Urbani: unit not given here

Sequence	Binding of a rabbit serum to linear peptides of protein N of SARS-CoV Urbani (Rabbit serum linear peptides) [1]	Binding of a rabbit serum to looped/cyclic peptides of protein N of SARS-CoV Urbani (Rabbit serum looped peptides) [1]	Binding of antibody 03-018 to linear peptides of the N protein of SARS-CoV Urbani [2]	Binding of antibody 03-018 to looped/cyclic peptides of the N protein of SARS-CoV Urbani [2]	Binding of Control Serum Blood-Bank to Looped peptides [3]	Binding of Control serum Blood-bank to linear peptides [3]	Binding of Control serum LUMC to linear peptides [3]	Binding of Control serum LUMC to looped peptides [3]	Binding of serum 1a to linear peptides of protein N of SARS-CoV Urbani [4]	Binding of serum 1a to looped/cyclic peptides of protein N of SARS-CoV Urbani [4]	Binding of serum 1b to linear peptides of protein N of SARS-CoV Urbani [4]	Binding of serum 1b to looped/cyclic peptides of protein N of SARS-CoV Urbani [4]	Binding of serum 2 to linear peptides of protein N of SARS-CoV Urbani [4]	Binding of serum 2 to looped/cyclic peptides of protein N of SARS-CoV Urbani [4]	Binding of serum 6 to looped/cyclic peptides of protein N of SARS-CoV Urbani [4]	Binding of serum 37 to looped/cyclic peptides of protein N of SARS-CoV Urbani [4]	Binding of serum 62 to looped/cyclic peptides of protein N of SARS-CoV Urbani [4]	Binding of serum London to looped/cyclic peptides of protein N of SARS-CoV Urbani [4]	Binding of serum SARS-green to looped/cyclic peptides of protein N of SARS-CoV Urbani [4]	Binding of serum SARS-yellow to looped/cyclic peptides of protein N of SARS-CoV Urbani [4]	also measured
VATEGALNTPKDHIG	0.2	0.0	0.2	0.2	0.5	0.9	0.9	0.5	0.3	0.3	0.1	0.2	0.2	0.3	0.2	0.4	0.3	0.3	0.2	0.2	Binding of serum 6 to linear peptides of protein N of SARS-CoV Urbani [4]: 0.2; Binding of serum 37 to linear peptides of protein N of SARS-CoV Urbani [4]: 0.7; Binding of serum 62 to linear peptides of protein N of SARS-CoV Urbani [4]: 1.1; Binding of serum London to linear peptides of protein N of SARS-CoV Urbani [4]: 0.7; Binding of serum SARS-green to linear peptides of protein N of SARS-CoV Urbani [4]: 0.5; Binding of serum SARS-yellow to linear peptides of protein N of SARS-CoV Urbani [4]: 0.6
VILLNKHIDAYKTFP	0.1	0.4	0.1	0.2					0.2	0.3	0.1	0.1	0.2	0.3	0.2	0.5	0.4	0.4	0.2	0.3	Control Serum Blood-Bank Looped peptides [3]: 0.5; Control serum Blood-bank linear peptides [3]: 0.7; Control serum LUMC linear peptides [3]: 0.8; Control serum LUMC looped peptides [3]: 0.4; Binding of serum 6 to linear peptides of protein N of SARS-CoV Urbani [4]: 0.2; Binding of serum 37 to linear peptides of protein N of SARS-CoV Urbani [4]: 0.7; Binding of serum 62 to linear peptides of protein N of SARS-CoV Urbani [4]: 0.7; Binding of serum London to linear peptides of protein N of SARS-CoV Urbani [4]: 0.5; Binding of serum SARS-green to linear peptides of protein N of SARS-CoV Urbani [4]: 0.4; Binding of serum SARS-yellow to linear peptides of protein N of SARS-CoV Urbani [4]: 0.5
VPINTNSGPDDQIGY	0.1	0.3	0.1	0.2	0.8	0.7	0.8	0.7	0.3	0.5	0.2	0.4	0.2	0.4	0.2	0.9	0.7	0.5	1.1	0.7	Binding of serum 6 to linear peptides of protein N of SARS-CoV Urbani [4]: 0.2; Binding of serum 37 to linear peptides of protein N of SARS-CoV Urbani [4]: 0.8; Binding of serum 62 to linear peptides of protein N of SARS-CoV Urbani [4]: 0.7; Binding of serum London to linear peptides of protein N of SARS-CoV Urbani [4]: 0.4; Binding of serum SARS-green to linear peptides of protein N of SARS-CoV Urbani [4]: 0.4; Binding of serum SARS-yellow to linear peptides of protein N of SARS-CoV Urbani [4]: 0.5
VSGKGQQQQGQTVTK	0.2	0.4	0.1	0.3	0.7	1.0	1.4	0.9		0.9		0.3		0.5	0.3	0.5	0.5	0.5	0.5	0.6	Binding of serum 1a to linear peptide (PEPSCAN-ELISA) [4]: 1.2; Binding of serum 1b to linear peptide (PEPSCAN-ELISA) [4]: 0.6; Binding of serum 2 to linear peptide (PEPSCAN-ELISA) [4]: 0.6; Binding of serum 6 to linear peptide (PEPSCAN-ELISA) [4]: 0.4; Binding of serum 37 to linear peptide (PEPSCAN-ELISA) [4]: 0.9; Binding of serum 62 to linear peptide (PEPSCAN-ELISA) [4]: 1.2; Binding of serum London to linear peptide (PEPSCAN-ELISA) [4]: 0.6; Binding of serum SARS-green to linear peptide (PEPSCAN-ELISA) [4]: 0.5; Binding of serum SARS-yellow to linear peptide (PEPSCAN-ELISA) [4]: 1.0
